Peptide text beside a SMILES is read from it.
Key:
ZIKV strain MR766 [1] = assay: ZIKV RNA in infected Vero cells, peptide pre-treatment (real-time RT-PCR); assay type: cell-based, Zika virus; details: for ZIKV RNA compared with untreated controls: peptide 2 µM, 2 h before ZIKV MOI 0.5, re-treated at 24 h, 48-h post-infection, RT-PCR normalized to GAPDH, N = 3
Procedure: (§1) Human fetal astrocytes were derived from a single-cell isolation process of fetal brain tissues as previously described ([25], [26]). Briefly, dissociated brain tissue was incubated with 0.25% trypsin for 30 min, followed by neutralization with 10% fetal bovine serum (FBS), and further dissociated by trituration. The single-cell suspension was cultured as adherent cells in DMEM/F12 (Thermo Fisher Scientific, Waltham, MA, USA), supplemented with 10% FBS, penicillin (50 units/mL), and streptomycin (50 µg/mL) (Thermo Fisher Scientific). […] Vero cells (ATCC, CCL-81), an African green monkey kidney cell line, were maintained in Dulbecco’s Modified Eagle Medium (DMEM) with 5% FBS. Experiments with ZIKV were performed exclusively inside a BioSafety Level 2 (laboratory). All procedures utilized in this study were approved by the Institutional Biosafety Committee (IBC 16-05-013BL2) and followed biosafety level II practices as shown in National Institutes of health (NIH) Guideline Appendix G-II-B. ZIKV strain MR766 (Uganda, 1947) was obtained from ZeptoMetrix Corp., Buffalo, NY, USA, and propagated in Vero cells. ZIKV infection of the Vero cells and fetal astrocytes was previously characterized ([27]) and all infections in the current studies were at the MOI of 0.5.
(§2) Total mRNA was isolated with TRIzol Reagent (Thermo Fisher Scientific) and RNeasy Mini Kit (QIAGEN Inc., Valencia, CA, USA) following the manufacturer’s recommendations. Two real-time RT-PCR methods were used for the current studies. First, SYBR Green-based RT-PCR assay was used to determine intracellular ZIKV RNA in Vero cells. For this assay, reverse transcription was performed using Verso cDNA synthesis Kit (Thermo Fisher Scientific) and 1 µg of total RNA in a 15-µL final volume. The RT-PCR analyses were performed using 7.5-µL SYBR Green PCR Master Mix (Thermo Fisher Scientific) with 0.5-µL cDNA, 1.5-µL H2O, 5.5-µL oligonucleotide primer pairs at 10 µM. […] GG-3. PCR program: 1, 50°C for 2 min; 2, 95°C for 2 min; 3, 95°C for 15 s; 4, specific annealing temperature for 15 s; 5, 72°C for 1 min. Steps 2–4 were repeated 40 times. All samples were amplified in triplicate for analysis. Relative ZIKV RNA levels were determined and standardized with a GAPDH internal control using comparative ΔΔCT method ([35]). Second, TaqMan-based RT-PCR assay was used to determine intracellular ZIKV RNA and other gene expressions in Figures 3–6 and extracellular ZIKV RNA in Figure 3. The TaqMan assay was performed in a StepOne^TM Real-Time PCR system (Thermo Fisher Scientific). Primers used for TaqMan real-time RT-PCR were all from the Thermo Fisher Scientific, which included ZIKV (forward sequence: 5-[…]-3, reverse sequence: 5- […]-3, and probe sequence: 5′-[…]-3), IFN-α2 (Hs00265051_s1), IFN-β1 (Hs01077958_s1), eukaryotic 18-s rRNA (Hs99999901_s1), β-actin (Hs99999903_m1), and GAPDH (Catalog number: 4310884E). Relative ZIKV mRNA levels were determined and standardized with a GAPDH or 18-s rRNA endogenous control using comparative ΔΔCT method ([35]). […] For ZIKV in supernatants, RNA was extracted from the supernatants through TRIzol™ LS Reagent (Thermo Fisher Scientific, 10296028) following the manufacturer’s manual. […] Quantitative genomic RNA from ZIKV (NR-1838DQ, ATCC) was used as a standard to calculate viral copies.

ZIKV strain MR766 [2] = assay: Intracellular ZIKV RNA in infected human fetal astrocytes, peptide pre-treatment (real-time RT-PCR); assay type: cell-based, Zika virus; details: for Reduction of ZIKV RNA levels: astrocytes, 10 µM, at 48 h; for Intracellular ZIKV RNA, % of the untreated ZIKV group / Dose dependence of intracellular ZIKV RNA decrease: human fetal astrocytes, 48 h; for Intracellular ZIKV RNA, % of the untreated ZIKV group: 2 h pre-treatment, ZIKV MOI 0.5, re-treated at 24 h, normalized to GAPDH, N = 3; for Dose dependence of intracellular ZIKV RNA decrease: pre-treatment 0.4 to 10 µM, ZIKV MOI 0.5
Procedure: as §1, §2

ZIKV strain MR766 [3] = assay: Direct inactivation of ZIKV by AMPs, plaque-forming assay; parameters: species or system Zika virus; details: 37°C; for Number of infectious virions after direct incubation: 10 µM peptide with ZIKV, all the time points (1, 2, 4 h), plaque assay; for Inactivation of Zika virions: plaque assay on Vero
Procedure: Vero cells were plated into 12-well plates at 5 (10^5 cells/well the day before infection). On the day of infection, the monolayers of Vero cells were inoculated with 100 µL of 10-fold serial dilutions of viral stocks and incubated at 37 °C for 1 h. After viral inoculation, medium containing ZIKV particles was removed and 1 ml overlay containing 0.6% molecular biology grade agarose (Agarose Unlimited, Alachua, FL, USA) in Modified Eagle Medium (Gibco) with 2% FBS. Cells were maintained at 37°C in 5% CO2 for 4 days. On day 5, cells were fixed with 4% paraformaldehyde solution in PBS and stained with 1% crystal violet solution in 20% methanol in water. Viral plaques were photographed using a CanonScan 9950F scanner and each plaque was counted as a plaque-forming unit (PFU). Viral titer was calculated as PFU/[volume virus (mL) × (dilution factor)].
Zika virus viral stocks were diluted to 10^6 PFU/mL with serum-free medium and peptides were added at the indicated final concentrations. The mixtures were incubated at 37°C for 1–4 h. At each time point, 200 µL of the mixtures was removed for virus yield determination. Ten-fold serial dilutions of the mixtures were prepared and number of infectious Zika virions in the inoculum was determined by the aforementioned plaque-forming assay on Vero cell monolayers.
Figure 7 GF-17 directly inactivates Zika virions. (A) Experimental scheme. Briefly, Zika virus (ZIKV) virions were directly treated with antimicrobial peptides at 37°C. Part of the inoculum was removed at the indicated time points and serial diluted for the plaque-forming assay to determine the number of infectious Zika virions. (B) Quantification of the viral plaques was performed and plaque-forming unit at each of the treatment groups was shown. ANOVA and Bonferroni post-test were performed on all groups. *** p < 0.001, as compared with the ZIKV control group (CTL, control).

SMILES	ZIKV RNA compared with untreated controls (ZIKV strain MR766 [1])	Reduction of ZIKV RNA levels (ZIKV strain MR766 [2])	Intracellular ZIKV RNA, % of the untreated ZIKV group (ZIKV strain MR766 [2]; peptide 2 µM) [%]	Intracellular ZIKV RNA, % of the untreated ZIKV group (ZIKV strain MR766 [2]; peptide 10 µM) [%]	Dose dependence of intracellular ZIKV RNA decrease (ZIKV strain MR766 [2])	Number of infectious virions after direct incubation (ZIKV strain MR766 [3])	Inactivation of Zika virions (ZIKV strain MR766 [3]; 10 µM peptide mixed with ZIKV (10^6 PFU/mL, serum-free medium), 1-h incubation) [%]	Inactivation of Zika virions (ZIKV strain MR766 [3]; 10 µM peptide mixed with ZIKV, 2-h incubation) [%]	Inactivation of Zika virions (ZIKV strain MR766 [3]; 10 µM peptide mixed with ZIKV, 4-h incubation) [%]	Dose dependence of ZIKV RNA decrease (ZIKV strain MR766 [1]; peptide 0.4, 2 and 10 µM, ZIKV MOI 0.5, 48-h post-infection)
CC[C@H](C)[C@H](NC(=O)[C@H](CCCCN)NC(=O)[C@H](CCCCN)NC(=O)[C@H](Cc1ccccc1)NC(=O)[C@H](CC(C)C)NC(=O)[C@H](CCCCN)NC(=O)[C@H](CCCCN)NC(=O)[C@H](Cc1ccccc1)NC(=O)[C@H](CCCCN)NC(=O)[C@H](CCCCN)NC(=O)[C@H](CCCNC(=N)N)NC(=O)[C@H](Cc1ccccc1)NC(=O)[C@H](CCCNC(=N)N)NC(=O)[C@H](CCCCN)NC(=O)[C@H](Cc1ccccc1)NC(=O)[C@H](CCCNC(=N)N)NC(=O)CN)C(=O)N[C@@H](CO)C(=O)O [BMAP-18] (H-GRFKRFRKKFKKLFKKIS-OH; N-terminus and C-terminus assumed)	significantly decreased ZIKV RNA	> 95%	15	4	decreased intracellular ZIKV RNA in a dose-dependent manner	did not significantly change the number of infectious virions				
CC[C@H](C)[C@H](NC(=O)[C@H](CCCNC(=N)N)NC(=O)[C@H](CCC(N)=O)NC(=O)[C@@H](NC(=O)[C@@H](NC(=O)[C@H](CCCNC(=N)N)NC(=O)[C@H](CCCCN)NC(=O)[C@H](Cc1ccccc1)NC(=O)CN)[C@@H](C)CC)C(C)C)C(=O)N[C@@H](CCCCN)C(=O)N[C@@H](CC(=O)O)C(=O)N[C@@H](Cc1ccccc1)C(=O)N[C@@H](CC(C)C)C(=O)N[C@@H](CCCNC(=N)N)C(=O)N[C@@H](CC(N)=O)C(=O)N[C@@H](CC(C)C)C(=O)N[C@H](C(N)=O)C(C)C [GF-17] (H-GFKRIVQRIKDFLRNLV-NH2; N-terminus and C-terminus assumed)	significantly decreased ZIKV RNA	over 99%	46	1	decreased intracellular ZIKV RNA in a dose-dependent manner		> 95	> 99	99	
CC[C@H](C)[C@H](NC(=O)[C@H](CCCNC(=N)N)NC(=O)[C@H](CCC(N)=O)NC(=O)[C@@H](NC(=O)[C@@H](NC(=O)[C@@H](N)CCCNC(=N)N)[C@@H](C)CC)C(C)C)C(=O)N[C@@H](CCCCN)C(=O)N[C@@H](CC(=O)O)C(=O)N[C@@H](Cc1ccccc1)C(=O)N[C@@H](CC(C)C)C(=O)O [RI-10, reference compound] (H-RIVQRIKDFL-OH; N-terminus and C-terminus assumed)					but not RI-10, decreased intracellular ZIKV RNA	did not significantly change the number of infectious virions				except RI-10 showed dose-dependent decrease of ZIKV RNA

— article PMC5906549, “Cathelicidin-Derived Antimicrobial Peptides Inhibit Zika Virus Through Direct Inactivation and Interferon Pathway” (Frontiers in Immunology, 2018)
